Measurements published in the NIST ThermoML archive (doi:10.1021/je900444h).

Experiment: mn = molality of the nth substance listed, in mol/kg
Details: 101 kPa, Liquid; for mass density: Vibrating tube method; for viscosity: Capillary tube (Ostwald / Ubbelohde) method

CNC(=O)NC [1,3-dimethylurea] + O
Details	mass density [kg/m3]	viscosity [mPa·s]
283.15 K, m1 = 0.0033	999.7	–
283.15 K, m1 = 0.0331	1000	–
283.15 K, m1 = 0.0995	1000.6	–
283.15 K, m1 = 0.1669	1001.2	–
283.15 K, m1 = 0.2354	1001.8	–
283.15 K, m1 = 0.3039	1002.4	–
283.15 K, m1 = 0.3387	1002.7	–
283.15 K, m1 = 0.4997	1004.2	–
283.15 K, m1 = 0.7491	1006.5	–
283.15 K, m1 = 1.001	1008.7	–
283.15 K, m1 = 1.08	1009.4	–
283.15 K, m1 = 1.5	1013.2	–
283.15 K, m1 = 1.923	1016.8	–
283.15 K, m1 = 2.885	1024.6	–
283.15 K, m1 = 4.005	1032.6	–
283.15 K, m1 = 5.304	1040.7	–
283.15 K, m1 = 6.862	1048.7	–
283.15 K, m1 = 8.726	1056.3	–
283.15 K, m1 = 11.02	1063.4	–
283.15 K, m1 = 15.65	1072.5	–
283.15 K, m1 = 23.15	1079.6	–
288.15 K, m1 = 0.0033	999.1	1.173
288.15 K, m1 = 0.0331	999.4	1.187
288.15 K, m1 = 0.0995	1000	1.212
288.15 K, m1 = 0.1669	1000.5	1.232
288.15 K, m1 = 0.2354	1001.1	1.243
288.15 K, m1 = 0.3039	1001.7	1.255
288.15 K, m1 = 0.3387	1002	1.27
288.15 K, m1 = 0.4997	1003.4	–
288.15 K, m1 = 0.7491	1005.6	1.402
288.15 K, m1 = 1.001	1007.8	–
288.15 K, m1 = 1.08	1008.5	–
288.15 K, m1 = 1.5	1012.1	–
288.15 K, m1 = 1.923	1015.5	1.831
288.15 K, m1 = 2.885	1023	2.225
288.15 K, m1 = 4.005	1030.7	2.746
288.15 K, m1 = 5.304	1038.4	3.342
288.15 K, m1 = 6.862	1046	4.179
288.15 K, m1 = 8.726	1053.3	5.242
288.15 K, m1 = 11.02	1060.1	6.533
288.15 K, m1 = 15.65	1068.9	9.3
288.15 K, m1 = 23.15	1075.7	14.49
293.15 K, m1 = 0.0033	998.2	1.035
293.15 K, m1 = 0.0331	998.5	1.045
293.15 K, m1 = 0.0995	999	1.066
293.15 K, m1 = 0.1669	999.6	1.081
293.15 K, m1 = 0.2354	1000.2	1.094
293.15 K, m1 = 0.3039	1000.8	1.104
293.15 K, m1 = 0.3387	1001	1.117
293.15 K, m1 = 0.4997	1002.4	–
293.15 K, m1 = 0.7491	1004.5	1.228
293.15 K, m1 = 1.001	1006.6	–
293.15 K, m1 = 1.08	1007.3	–
293.15 K, m1 = 1.5	1010.7	–
293.15 K, m1 = 1.923	1014	1.581
293.15 K, m1 = 2.885	1021.2	1.902
293.15 K, m1 = 4.005	1028.5	2.325
293.15 K, m1 = 5.304	1035.9	2.805
293.15 K, m1 = 6.862	1043.3	3.464
293.15 K, m1 = 8.726	1050.2	4.27
293.15 K, m1 = 11.02	1056.8	5.262
293.15 K, m1 = 15.65	1065.3	7.377
293.15 K, m1 = 23.15	1071.9	11.22
298.15 K, m1 = 0.0033	997.1	0.9187
298.15 K, m1 = 0.0331	997.3	0.929
298.15 K, m1 = 0.0995	997.9	0.9456
298.15 K, m1 = 0.1669	998.4	0.9603
298.15 K, m1 = 0.2354	999	0.9716
298.15 K, m1 = 0.3039	999.5	0.9789
298.15 K, m1 = 0.3387	999.8	0.9944
298.15 K, m1 = 0.4997	1001.1	–
298.15 K, m1 = 0.7491	1003.2	1.084
298.15 K, m1 = 1.001	1005.2	–
298.15 K, m1 = 1.08	1005.8	–
298.15 K, m1 = 1.5	1009.2	–
298.15 K, m1 = 1.923	1012.3	1.379
298.15 K, m1 = 2.885	1019.2	1.649
298.15 K, m1 = 4.005	1026.3	1.998
298.15 K, m1 = 5.304	1033.3	2.382
298.15 K, m1 = 6.862	1040.4	2.921
298.15 K, m1 = 8.726	1047	3.535
298.15 K, m1 = 11.02	1053.4	4.342
298.15 K, m1 = 15.65	1061.6	5.955
298.15 K, m1 = 23.15	1068	8.8
303.15 K, m1 = 0.0033	995.7	0.8242
303.15 K, m1 = 0.0331	995.9	0.8316
303.15 K, m1 = 0.0995	996.4	0.8464
303.15 K, m1 = 0.1669	997	0.8592
303.15 K, m1 = 0.2354	997.5	0.8702
303.15 K, m1 = 0.3039	998.1	0.8753
303.15 K, m1 = 0.3387	998.3	0.887
303.15 K, m1 = 0.4997	999.6	–
303.15 K, m1 = 0.7491	1001.6	0.9652
303.15 K, m1 = 1.001	1003.6	–
303.15 K, m1 = 1.08	1004.2	–
303.15 K, m1 = 1.5	1007.4	–
303.15 K, m1 = 1.923	1010.5	1.216
303.15 K, m1 = 2.885	1017.1	1.44
303.15 K, m1 = 4.005	1023.8	1.729
303.15 K, m1 = 5.304	1030.6	2.055
303.15 K, m1 = 6.862	1037.4	2.49
303.15 K, m1 = 8.726	1043.8	3.002
303.15 K, m1 = 11.02	1049.8	3.603
303.15 K, m1 = 15.65	1057.8	4.927
303.15 K, m1 = 23.15	1064	7.122
308.15 K, m1 = 0.4997	997.9	–
308.15 K, m1 = 0.7491	999.8	0.8666
308.15 K, m1 = 1.001	1001.7	–
308.15 K, m1 = 1.08	1002.3	–
308.15 K, m1 = 1.5	1005.4	–
308.15 K, m1 = 1.923	1008.4	1.079
308.15 K, m1 = 2.885	1014.8	1.271
308.15 K, m1 = 4.005	1021.3	1.511
308.15 K, m1 = 5.304	1027.8	1.778
308.15 K, m1 = 6.862	1034.3	2.135
308.15 K, m1 = 8.726	1040.5	2.545
308.15 K, m1 = 11.02	1046.3	3.056
308.15 K, m1 = 15.65	1054	4.116
308.15 K, m1 = 23.15	1060.1	5.865
313.15 K, m1 = 0.4997	996	–
313.15 K, m1 = 0.7491	997.9	0.7797
313.15 K, m1 = 1.001	999.7	–
313.15 K, m1 = 1.08	1000.3	–
313.15 K, m1 = 1.5	1003.3	–
313.15 K, m1 = 1.923	1006.1	0.9649
313.15 K, m1 = 2.885	1012.3	1.127
313.15 K, m1 = 4.005	1018.6	1.336
313.15 K, m1 = 5.304	1024.9	1.56
313.15 K, m1 = 6.862	1031.1	1.859
313.15 K, m1 = 8.726	1037.1	2.195
313.15 K, m1 = 11.02	1042.8	2.626
313.15 K, m1 = 15.65	1050.2	3.513
313.15 K, m1 = 23.15	1056.1	4.918
318.15 K, m1 = 5.304	1021.8	1.38
318.15 K, m1 = 6.862	1027.8	1.632
318.15 K, m1 = 8.726	1033.6	1.906
318.15 K, m1 = 11.02	1039.1	2.268
318.15 K, m1 = 15.65	1046.3	3.024
318.15 K, m1 = 23.15	1052.1	4.196
323.15 K, m1 = 5.304	1018.6	1.222
323.15 K, m1 = 6.862	1024.5	1.44
323.15 K, m1 = 8.726	1030.1	1.681
323.15 K, m1 = 11.02	1035.4	1.983
323.15 K, m1 = 15.65	1042.4	2.646
323.15 K, m1 = 23.15	1048	3.658
328.15 K, m1 = 5.304	1015.9	1.095
328.15 K, m1 = 6.862	1021	1.293
328.15 K, m1 = 8.726	1026.5	1.492
328.15 K, m1 = 11.02	1031.6	1.76
328.15 K, m1 = 15.65	1038.4	2.333
328.15 K, m1 = 23.15	1043.9	3.212
333.15 K, m1 = 5.304	1012.3	1.024
333.15 K, m1 = 6.862	1017.5	1.164
333.15 K, m1 = 8.726	1022.7	1.343
333.15 K, m1 = 11.02	1027.8	1.564
333.15 K, m1 = 15.65	1034.4	2.061
333.15 K, m1 = 23.15	1039.8	2.818
